From US11016062B2, “System and method of measuring cell viability and growth” (University of South Florida, priority 2015, dated 2021)

What was measured:
BT474-SCTs = assay: Sensitivity of BT474 single cell-line tumoroids (SCTs) on PNS to lapatinib, PrestoBlue cell viability; format: cell-based; settings: Homo sapiens, BT-474, BT474-SCTs cultured on PNS, lapatinib 72 h
Method: (§1) FIGS. 9A-C are a series of images depicting growth of BT474 derived SCTs (A) and MCTs (B) for 6 days on PNS; tumoroids are stained with calcein AM/EthD-1. Confocal (merged z-stacked) images showing presence of ECs (vWF, green cells), CAFs (SMA positive, red cells) and DAPI (cell nuclei) in BT474-MCTs imaged by confocal microscopy (merged z-stacked images). (C) Differential response of BT474-SCTs and -MCTs to lapatinib. On day 2 after co-culture, BT474 cells were treated with increasing concentrations (μM) of lapatinib for 72 h; cell viability was measured by PrestoBlue assay.
The inventors examined sensitivity of BT474-SCTs and -MCTs to lapatinib. […] These include, IL-6, IL-8, vascular endothelial growth factor (VEGF), monocyte chemotactic protein 1 (MCP-1), platelet derived growth factor BB (PDGF-BB), dickkopf-1 (DKK-1, inhibitor of Wnt signaling pathway), osteoprotegerin (OPG, a negative regulator of bone remodeling) and MMP-3, which have been implicated in tumor metastasis, angiogenesis, cancer stem cell amplification or drug resistance. In addition, five tumoroid biomarkers that are found expressed abundantly in MCTs (vs SCTs) and can be considered as predictors of clinical efficacy for lapatinib, included, a) marker for cell proliferation: Ki67, and b) stromal derived factors: IL-6, MCP-1, VEGF and DKK-1 (FIG. 9D).

BT474-MCTs = assay: Sensitivity of BT474 multi-cell tumoroids (MCTs, co-culture with ECs and CAFs) on PNS to lapatinib, PrestoBlue cell viability; format: cell-based; settings: Homo sapiens, BT-474, BT474-MCTs in the presence of ECs and CAFs on PNS, lapatinib 72 h
Method: as §1
The inventors established conditions to co-culture tumor cells with ECs and CAFs to allow formation of robust MCTs. […] The presence of CAFs and ECs in the MCTs was confirmed by immunohistochemistry using anti-smooth muscle actin (SMA) and antivon Willebrand factor (vWF) antibodies for CAFs and ECs, respectively, followed by confocal microscopy (FIG. 9B). On day 5 after co-culture, CAFs were found dispersed throughout the MCT, whereas ECs were found mostly on the edge of the MCT.
The inventors examined sensitivity of BT474-SCTs and -MCTs to lapatinib. […]

IC50 (BT474-SCTs): < 2.5 µM | IC50 (BT474-MCTs): > 10 µM
SMILES: CS(=O)(=O)CCNCc1ccc(-c2ccc3ncnc(Nc4ccc(OCc5cccc(F)c5)c(Cl)c4)c3c2)o1 [lapatinib]
